Source: patent US20030225152A1, “3-(Arylamino)methylene-1, 3-dihydro-2h-indol-2-ones as kinase inhibitors” (priority 2001, published 2003)

system: VEGF induced increases in intracellular calcium levels in HUVEC (human umbilical vein endothelial cells); assay: VEGF Stimulated Ca++ Signal in vitro (FLIPR); assay type: cell-based; settings: 10 μM, VEGF 5 ng/mL
In short: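 IC50 values derive from % inhibition of the VEGF (5 ng/mL) calcium response, taken as max-min fluorescence at 516 nm in Fluo-4-loaded HUVEC. Compounds (0.1% DMSO final) were added 30 min before stimulation, at 10 μM or across 0.01–10.0 μM.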

SMILES | VEGF Stimulated Ca^++ signal assay % inhibition @ 10 μM [%]
NS(=O)(=O)c1ccc(NC=C2C(=O)Nc3ccccc32)cc1 [Example 38, 2-Oxo-1,2-dihydro-indol-3-ylidenemethyl-sulfanilamide] | 92.08

same assay, conditions: 0.01 to 10.0 μM, VEGF 5 ng/mL

SMILES | IC50 [nM]
COc1ccc(NC=C2C(=O)Nc3ccccc32)cc1 [Example 7, 3-[(4-Methoxy-phenylamino)-methylene]-1,3-dihydro-indol-2-one] | 950
O=C1Nc2ccccc2C1=CNc1ccc2[nH]ccc2c1 [Example 31, 3-[(5-Indolylamino)-methylene]-1,3-dihydro-indol-2-one] | 720
NS(=O)(=O)c1ccc(NC=C2C(=O)Nc3ccccc32)cc1 [Example 38, 2-Oxo-1,2-dihydro-indol-3-ylidenemethyl-sulfanilamide] | 1450
Cc1cccc2c1C(=CNc1ccccc1)C(=O)N2 [Example 58, 4-Methyl-3-phenylaminomethylene-1,3-dihydro-indol-2-one] | 810

same assay, conditions: Homo sapiens, 10 μM, VEGF 5 ng/mL

SMILES | inhibition at 10 µM [%]
CCc1ccc(NC=C2C(=O)Nc3ccccc32)cc1 [Example 5, 3-[(4-Ethyl-phenylamino)-methylene]-1,3-dihydro-indol-2-one] | 77.3
CCc1cccc(NC=C2C(=O)Nc3ccccc32)c1 [Example 6] | 90.1
COc1ccc(NC=C2C(=O)Nc3ccccc32)cc1 [Example 7, 3-[(4-Methoxy-phenylamino)-methylene]-1,3-dihydro-indol-2-one] | 94.5
O=C1Nc2ccccc2C1=CNc1cccc(O)c1 [Example 15, 3-[(3-Hydroxy-phenylamino)-methylene]-1,3-dihydro-indol-2-one] | 93.7
COc1cc(NC=C2C(=O)Nc3ccccc32)cc(OC)c1 [Example 16, 3-[(3,5-Dimethoxy-phenylamino)-methylene]-1,3-dihydro-indol-2-one] | 50
CC(C)(C)c1ccc(NC=C2C(=O)Nc3ccccc32)cc1 [Example 17, 3-[(4-tert-Butyl-phenylamino)-methylene]-1,3-dihydro-indol-2-one] | 76.5
Cc1ccc(NC=C2C(=O)Nc3ccccc32)cc1C [Example 20, 3-[(3,4-Dimethyl-phenylamino)-methylene]-1,3-dihydro-indol-2-one] | 63
COc1ccc(NC=C2C(=O)Nc3ccccc32)cc1F [Example 21, 3-[(3-Fluoro-4-methoxy-phenylamino)-methylene]-1,3-dihydro-indol-2-one] | 88
N#Cc1ccc(NC=C2C(=O)Nc3ccccc32)cc1 [Example 29, 3-[(4-Cyanophenylamino)-methylene]-1,3-dihydro-indol-2-one] | 81.5
O=C1Nc2ccccc2C1=CNc1ccc2[nH]ccc2c1 [Example 31, 3-[(5-Indolylamino)-methylene]-1,3-dihydro-indol-2-one] | 98.6
O=C1Nc2ccccc2C1=CNc1ccc2[nH]ncc2c1 [Example 32, 3-[(5-Indazolylamino)-methylene]-1,3-dihydro-indol-2-one] | 72.2
NC(=O)c1ccc(NC=C2C(=O)Nc3ccccc32)cc1 [Example 33, 3-[(4-Benzamidylamino)-methylene]-1,3-dihydro-indol-2-one] | 95.9
Cc1cccc2c1C(=CNc1ccccc1)C(=O)N2 [Example 58, 4-Methyl-3-phenylaminomethylene-1,3-dihydro-indol-2-one] | 86.6

same assay, conditions: Homo sapiens, 0.01 to 10.0 μM, VEGF 5 ng/mL

SMILES | IC50 [nM]
CCc1ccc(NC=C2C(=O)Nc3ccccc32)cc1 [Example 5, 3-[(4-Ethyl-phenylamino)-methylene]-1,3-dihydro-indol-2-one] | 1820
CCc1cccc(NC=C2C(=O)Nc3ccccc32)c1 [Example 6] | 1840
COc1ccc(NC=C2C(=O)Nc3ccccc32)cc1 [Example 7, 3-[(4-Methoxy-phenylamino)-methylene]-1,3-dihydro-indol-2-one] | ≤ 1000
COc1cc(NC=C2C(=O)Nc3ccccc32)cc(OC)c1 [Example 16, 3-[(3,5-Dimethoxy-phenylamino)-methylene]-1,3-dihydro-indol-2-one] | ≥ 10000
CC(C)(C)c1ccc(NC=C2C(=O)Nc3ccccc32)cc1 [Example 17, 3-[(4-tert-Butyl-phenylamino)-methylene]-1,3-dihydro-indol-2-one] | 3000
Cc1ccc(NC=C2C(=O)Nc3ccccc32)cc1C [Example 20, 3-[(3,4-Dimethyl-phenylamino)-methylene]-1,3-dihydro-indol-2-one] | 1820
COc1ccc(NC=C2C(=O)Nc3ccccc32)cc1F [Example 21, 3-[(3-Fluoro-4-methoxy-phenylamino)-methylene]-1,3-dihydro-indol-2-one] | 1500
N#Cc1ccc(NC=C2C(=O)Nc3ccccc32)cc1 [Example 29, 3-[(4-Cyanophenylamino)-methylene]-1,3-dihydro-indol-2-one] | 7290
O=C1Nc2ccccc2C1=CNc1ccc2[nH]ccc2c1 [Example 31, 3-[(5-Indolylamino)-methylene]-1,3-dihydro-indol-2-one] | ≤ 1000
O=C1Nc2ccccc2C1=CNc1ccc2[nH]ncc2c1 [Example 32, 3-[(5-Indazolylamino)-methylene]-1,3-dihydro-indol-2-one] | 2660
NC(=O)c1ccc(NC=C2C(=O)Nc3ccccc32)cc1 [Example 33, 3-[(4-Benzamidylamino)-methylene]-1,3-dihydro-indol-2-one] | 1350
Cc1cccc2c1C(=CNc1ccccc1)C(=O)N2 [Example 58, 4-Methyl-3-phenylaminomethylene-1,3-dihydro-indol-2-one] | ≤ 1000

target: T1, cytoplasmic domain of the human VEGF receptor (VEGFR-2) (Homo sapiens, UniProt P35968); assay: KDR Assay; assay type: biochemical; settings: His-VEGFR-2; 3.6 μM ATP
T1 construct: The cytoplasmic domain of the human VEGF receptor (VEGFR-2) was expressed as a Histidine-tagged fusion protein; Histidine tag
Procedure: The cytoplasmic domain of the human VEGF receptor (VEGFR-2) was expressed as a Histidine-tagged fusion protein following infection of insect cells using an engineered baculovirus. His-VEGFR-2 was purified to homogeneity, as determined by SDS-PAGE, using nickel resin chromatography. Kinase assays were performed in 96 well microtiter plates that were coated overnight with 30 μg of poly-Glu-Tyr (4:1) in 10 mM Phosphate Buffered Saline (PBS), pH 7.2-7.4. The plates were incubated with 1% BSA and then washed four times with PBS prior to starting the reaction. Reactions were carried out in 120 μL reaction volumes containing 3.6 μM ATP in kinase buffer (50 mM Hepes buffer pH 7.4, 20 mM MgCl2, 0.1 mM MnCl2 and 0.2 mM Na3VO4). Test compounds were reconstituted in 100% DMSO and added to the reaction to give a final DMSO concentration of 5%. Reactions were initiated by the addition 0.5 ng of purified protein. Following a ten minute incubation at 25° C., the reactions were washed four times with PBS containing 0.05% Tween-20. 100 μl of a monoclonal anti-phosphotyrosine antibody-peroxidase conjugate was diluted 1:10000 in PBS-Tween-20 and added to the wells for 30 minutes. Following four washes with PBS-Tween-20, 100 μl of O-phenylenediamine Dihydrochloride in Phosphate-citrate buffer, containing urea hydrogen peroxide, was added to the wells for 7 minutes as a colorimetric substrate for the peroxidase. The reaction was terminated by the addition of 100 μl of 2.5N H2SO4 to each well and read using a microplate ELISA reader set at 492 nm. IC50 values for compound inhibition were calculated directly from graphs of optical density (arbitrary units) versus compound concentration following subtraction of blank values.

T1 sequence (P35968 786-1356): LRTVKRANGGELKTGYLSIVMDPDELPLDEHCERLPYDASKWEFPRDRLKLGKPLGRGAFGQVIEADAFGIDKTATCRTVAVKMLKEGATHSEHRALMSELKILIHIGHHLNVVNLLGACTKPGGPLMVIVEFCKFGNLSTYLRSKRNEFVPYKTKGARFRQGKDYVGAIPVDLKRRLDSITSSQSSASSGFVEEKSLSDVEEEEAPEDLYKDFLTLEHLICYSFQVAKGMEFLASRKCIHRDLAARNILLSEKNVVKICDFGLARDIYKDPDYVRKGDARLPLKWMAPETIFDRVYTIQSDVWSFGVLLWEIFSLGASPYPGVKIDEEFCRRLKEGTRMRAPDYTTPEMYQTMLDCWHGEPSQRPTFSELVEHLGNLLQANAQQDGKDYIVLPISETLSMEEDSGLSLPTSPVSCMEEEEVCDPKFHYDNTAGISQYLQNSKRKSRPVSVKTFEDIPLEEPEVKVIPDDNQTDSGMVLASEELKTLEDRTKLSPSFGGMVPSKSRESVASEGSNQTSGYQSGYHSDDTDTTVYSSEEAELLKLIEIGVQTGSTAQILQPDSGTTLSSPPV

SMILES | IC50 [nM]
CCc1ccc(NC=C2C(=O)Nc3ccccc32)cc1 [Example 5, 3-[(4-Ethyl-phenylamino)-methylene]-1,3-dihydro-indol-2-one] | 480
CCc1cccc(NC=C2C(=O)Nc3ccccc32)c1 [Example 6] | 520
COc1ccc(NC=C2C(=O)Nc3ccccc32)cc1 [Example 7, 3-[(4-Methoxy-phenylamino)-methylene]-1,3-dihydro-indol-2-one] | 690
O=C1Nc2ccccc2C1=CNc1cccc(O)c1 [Example 15, 3-[(3-Hydroxy-phenylamino)-methylene]-1,3-dihydro-indol-2-one] | 910
COc1cc(NC=C2C(=O)Nc3ccccc32)cc(OC)c1 [Example 16, 3-[(3,5-Dimethoxy-phenylamino)-methylene]-1,3-dihydro-indol-2-one] | 1270
CC(C)(C)c1ccc(NC=C2C(=O)Nc3ccccc32)cc1 [Example 17, 3-[(4-tert-Butyl-phenylamino)-methylene]-1,3-dihydro-indol-2-one] | 790

Now from value to molecule:

IC50 [nM] | SMILES
1210 | Cc1ccc(NC=C2C(=O)Nc3ccccc32)cc1C [Example 20, 3-[(3,4-Dimethyl-phenylamino)-methylene]-1,3-dihydro-indol-2-one]
720 | COc1ccc(NC=C2C(=O)Nc3ccccc32)cc1F [Example 21, 3-[(3-Fluoro-4-methoxy-phenylamino)-methylene]-1,3-dihydro-indol-2-one]
680 | N#Cc1ccc(NC=C2C(=O)Nc3ccccc32)cc1 [Example 29, 3-[(4-Cyanophenylamino)-methylene]-1,3-dihydro-indol-2-one]
570 | O=C1Nc2ccccc2C1=CNc1ccc2[nH]ccc2c1 [Example 31, 3-[(5-Indolylamino)-methylene]-1,3-dihydro-indol-2-one]
600 | O=C1Nc2ccccc2C1=CNc1ccc2[nH]ncc2c1 [Example 32, 3-[(5-Indazolylamino)-methylene]-1,3-dihydro-indol-2-one]
880 | NC(=O)c1ccc(NC=C2C(=O)Nc3ccccc32)cc1 [Example 33, 3-[(4-Benzamidylamino)-methylene]-1,3-dihydro-indol-2-one]
500 | NS(=O)(=O)c1ccc(NC=C2C(=O)Nc3ccccc32)cc1 [Example 38, 2-Oxo-1,2-dihydro-indol-3-ylidenemethyl-sulfanilamide]
360 | Cc1cccc2c1C(=CNc1ccccc1)C(=O)N2 [Example 58, 4-Methyl-3-phenylaminomethylene-1,3-dihydro-indol-2-one]
